What was measured:
Format in all cases: in vivo
[1] = tested on: heartshape false pickerelweed (Monochoria vaginalis (Burm.f.) C.Presl); experiment: Test Example 1: herbicidal effect by soil application to paddy field; conditions: paddy field soil application; active ingredient 1,000 g per 1 hectare; wettable powder added dropwise to water surface the day after sowing; examined on the 21st day after application
How it was run: (§1)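 Under greenhouse conditions, seeds sown on puddled paddy soil in 100 cm2 pots under 3 cm of standing water received the test compound; injury was assessed with a standard scoring scheme three weeks (day 21) after treatment.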

[2] = tested on: early watergrass (Echinochloa oryzicola Vasing); experiment: as above; conditions: paddy field soil application; active ingredient 1,000 g per 1 hectare; wettable powder added dropwise to water surface the day after sowing; examined on the 21st day after application
How it was run: as §1

[3] = tested on: Japanese bulrush (Scirpus juncoides Roxb.); experiment: as above; conditions: paddy field soil application; active ingredient 1,000 g per 1 hectare; wettable powder added dropwise to water surface the day after sowing; examined on the 21st day after application
How it was run: as §1

[4] = tested on: barnyardgrass (Echinochloa crus-galli (L.) P. Beauv. var. crus-galli); experiment: Test Example 2: herbicidal effect by soil application to upland field; conditions: soil surface spray, upland field soil, 1,000 g active ingredient per hectare, 21st day after application
How it was run: (§2)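 Scoring on a standard scale took place 21 days after application, with plants kept in a greenhouse. Active ingredient (1,000 g/ha, as diluted wettable powder, 1,000 L/ha) was sprayed evenly onto soil directly after sowing and covering seeds.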

[5] = tested on: slender amaranth (Amaranthus viridis L.); experiment: as above; conditions: soil surface spray, upland field soil, 1,000 g active ingredient per hectare, 21st day after application
How it was run: as §2

[6] = tested on: velvetleaf (Abutilon theophrasti medicus); experiment: as above; conditions: soil surface spray, upland field soil, 1,000 g active ingredient per hectare, 21st day after application
How it was run: as §2

[7] = tested on: green foxtail (Setaria viridis (L.) P. Beauv.); experiment: as above; conditions: soil surface spray, upland field soil, 1,000 g active ingredient per hectare, 21st day after application
How it was run: as §2

[8] = tested on: barnyardgrass (Echinochloa crus-galli (L.) P. Beauv. var. crus-galli); experiment: Test Example 3: herbicidal effect by application to upland field (foliage treatment); conditions: 14th day after application; for herbicidal effect, Barnyardgrass: foliage treatment, 1,000 g active ingredient per 1 hectare, greenhouse
How it was run: (§3)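 Foliar spray on two-week-old greenhouse weeds in field soil: wettable powder formulation diluted in water, applied at 1,000 L/ha to give 1,000 g a.i./ha. Damage rated by a fixed scoring standard on day 14 after application.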

[9] = tested on: slender amaranth (Amaranthus viridis L.); experiment: as above; conditions: 14th day after application; for herbicidal effect, Slender Amaranth: foliage treatment, 1,000 g active ingredient per 1 hectare, greenhouse
How it was run: as §3

[10] = tested on: velvetleaf (Abutilon theophrasti medicus); experiment: as above; conditions: 14th day after application; for herbicidal effect, Velvetleaf: foliage treatment, 1,000 g active ingredient per 1 hectare, greenhouse
How it was run: as §3

[11] = tested on: green foxtail (Setaria viridis (L.) P. Beauv.); experiment: as above; conditions: 14th day after application; for herbicidal effect, Green Foxtail: foliage treatment, 1,000 g active ingredient per 1 hectare, greenhouse
How it was run: as §3

[12] = foliage treatment, plants grown two weeks, 1,000 g active ingredient per hectare

| Structure (SMILES) | herbicidal effect, Monochoria vaginalis (Burm. f.) C. Presl [1] | herbicidal effect, Echinochloa oryzicola Vasing [2] | herbicidal effect, Scirpus juncoides Roxb. [3] | herbicidal effect (index), Barnyardgrass [4] | herbicidal effect (index), Slender Amaranth [5] | herbicidal effect (index), Velvetleaf [6] | herbicidal effect (index), Green Foxtail [7] | herbicidal effect, Barnyardgrass [8] | herbicidal effect, Slender Amaranth [9] | herbicidal effect, Velvetleaf [10] | herbicidal effect, Green Foxtail [11] | herbicidal effect (index), Barnyardgrass [8, 12] | herbicidal effect (index), Slender Amaranth [9, 12] | herbicidal effect (index), Velvetleaf [10, 12] | herbicidal effect (index), Green Foxtail [11, 12] |
| --- | --- | --- | --- | --- | --- | --- | --- | --- | --- | --- | --- | --- | --- | --- | --- |
| CCCn1c(C(F)(F)F)ccc(C(=O)c2cnn(C)c2O)c1=O [IV-3] | 5 (90% or more of herbicidal effect and crop phytotoxicity) | 5 (90% or more of herbicidal effect and crop phytotoxicity) | 5 (90% or more of herbicidal effect and crop phytotoxicity) | 5 (90% or more of herbicidal effect and crop phytotoxicity) | 5 (90% or more of herbicidal effect and crop phytotoxicity) | 5 (90% or more of herbicidal effect and crop phytotoxicity) | 5 (90% or more of herbicidal effect and crop phytotoxicity) | 5 (90% or more of herbicidal effect and crop phytotoxicity) | 5 (90% or more of herbicidal effect and crop phytotoxicity) | 5 (90% or more of herbicidal effect and crop phytotoxicity) | 5 (90% or more of herbicidal effect and crop phytotoxicity) |  |  |  |  |
| CON=CCn1c(C(F)(F)F)ccc(C(=O)C2=C(O)CCCC2=O)c1=O [I-133] | 5 (90% or more of herbicidal effect and crop phytotoxicity) | 5 (90% or more of herbicidal effect and crop phytotoxicity) | 5 (90% or more of herbicidal effect and crop phytotoxicity) | 5 (90% or more of herbicidal effect and crop phytotoxicity) | 5 (90% or more of herbicidal effect and crop phytotoxicity) | 5 (90% or more of herbicidal effect and crop phytotoxicity) | 4 (70 to less than 90% of herbicidal effect and crop phytotoxicity) | 5 (90% or more of herbicidal effect and crop phytotoxicity) | 5 (90% or more of herbicidal effect and crop phytotoxicity) | 5 (90% or more of herbicidal effect and crop phytotoxicity) | 4 (70 to less than 90% of herbicidal effect and crop phytotoxicity) |  |  |  |  |
| Cn1ncc(C(=O)c2ccc(C(F)(F)F)n(CC3OCCO3)c2=O)c1O [IV-119] | 5 (90% or more of herbicidal effect and crop phytotoxicity) | 5 (90% or more of herbicidal effect and crop phytotoxicity) | 5 (90% or more of herbicidal effect and crop phytotoxicity) | 5 (90% or more of herbicidal effect and crop phytotoxicity) | 5 (90% or more of herbicidal effect and crop phytotoxicity) | 5 (90% or more of herbicidal effect and crop phytotoxicity) | 5 (90% or more of herbicidal effect and crop phytotoxicity) | 5 (90% or more of herbicidal effect and crop phytotoxicity) | 5 (90% or more of herbicidal effect and crop phytotoxicity) | 4 (70 to less than 90% of herbicidal effect and crop phytotoxicity) | 4 (70 to less than 90% of herbicidal effect and crop phytotoxicity) |  |  |  |  |
| Cn1ncc(C(=O)c2ccc(C(F)(F)F)n(-c3cc(F)cc(F)c3)c2=O)c1O [IV-80] | 5 (90% or more of herbicidal effect and crop phytotoxicity) | 5 (90% or more of herbicidal effect and crop phytotoxicity) | 5 (90% or more of herbicidal effect and crop phytotoxicity) | 5 (90% or more of herbicidal effect and crop phytotoxicity) | 5 (90% or more of herbicidal effect and crop phytotoxicity) | 5 (90% or more of herbicidal effect and crop phytotoxicity) | 5 (90% or more of herbicidal effect and crop phytotoxicity) | 5 (90% or more of herbicidal effect and crop phytotoxicity) | 5 (90% or more of herbicidal effect and crop phytotoxicity) | 5 (90% or more of herbicidal effect and crop phytotoxicity) | 5 (90% or more of herbicidal effect and crop phytotoxicity) |  |  |  |  |
| Cc1cc(Cn2c(C(F)(F)F)ccc(C(=O)C3=C(O)CCCC3=O)c2=O)on1 [I-128] | 5 (90% or more of herbicidal effect and crop phytotoxicity) | 5 (90% or more of herbicidal effect and crop phytotoxicity) | 5 (90% or more of herbicidal effect and crop phytotoxicity) | 5 (90% or more of herbicidal effect and crop phytotoxicity) | 5 (90% or more of herbicidal effect and crop phytotoxicity) | 5 (90% or more of herbicidal effect and crop phytotoxicity) | 4 (70 to less than 90% of herbicidal effect and crop phytotoxicity) | 5 (90% or more of herbicidal effect and crop phytotoxicity) | 5 (90% or more of herbicidal effect and crop phytotoxicity) | 5 (90% or more of herbicidal effect and crop phytotoxicity) | 4 (70 to less than 90% of herbicidal effect and crop phytotoxicity) |  |  |  |  |
| O=C1CCCC(O)=C1C(=O)c1ccc(C(F)(F)F)n(CS(=O)(=O)C2CC2)c1=O [I-53] | 5 (90% or more of herbicidal effect and crop phytotoxicity) | 5 (90% or more of herbicidal effect and crop phytotoxicity) | 5 (90% or more of herbicidal effect and crop phytotoxicity) | 5 (90% or more of herbicidal effect and crop phytotoxicity) | 5 (90% or more of herbicidal effect and crop phytotoxicity) | 5 (90% or more of herbicidal effect and crop phytotoxicity) | 5 (90% or more of herbicidal effect and crop phytotoxicity) |  |  |  |  | 5 (90% or more of herbicidal effect and crop phytotoxicity) | 5 (90% or more of herbicidal effect and crop phytotoxicity) | 5 (90% or more of herbicidal effect and crop phytotoxicity) | 5 (90% or more of herbicidal effect and crop phytotoxicity) |
